Assay results as given in patent publication US20100137367A1, “NOVEL CRYSTALLINE BEPOTASTINE METAL SALT HYDRATE, METHOD FOR PREPARING SAME, AND PHARMACEUTICAL COMPOSITION COMPRISING SAME” (Hanmi Pharm. Co., Ltd., priority 2007, published 2010).
Like-named read-outs stand apart in the source and are kept apart here.

Legend:
[1] = Moisture absorption test; type: physicochemical
[2] = Solubility test (saturation solubility); conditions: for Saturation solubility (mg/ml) pH 1.2 buffer solution: pH 1.2 buffer solution (simulates gastric juice); for Saturation solubility (mg/ml) pH 6.8 buffer solution: pH 6.8 buffer solution (simulates intestinal juice)
[3] = Effect of severe storage condition on the optical purity (chiral HPLC); type: physicochemical; conditions: for Change of optical purity during the storage / Optical purity (%) After standing at 60° C. and 75% R.H. for 4 weeks in closed condition / Optical purity (%) After standing at 60° C. and 75% R.H. for 4 weeks in open condition: 60° C., 75% R.H., 4 weeks
Experimental: For the measurement of the optical purity of the bepotastine, chiral HPLC was conducted under following conditions and the optical purity was calculated using the Equation 1.
• Detector: Ultraviolet ray spectrophotometer (detection wavelength: 225 nm) • Column: YMC Chiral β-CDs (4.6×250 mm, 5 μm) • Mobile phase: methanol/ammonium acetate buffer solution=45/55(v/v, %) • Flow rate: 0.8 ml/min
Optical Purity (%)=Ps/(Ps+Pr)×100 Equation 1
wherein • Ps is the peak area of bepotastine, and • Pr is the peak area of R-enantiomer of bepotastine.
The optical purities of respective bepotastine salts were determined.

[4] = 40° C. and 75% relative humidity
Excerpt: Accordingly, there have been attempts to convert bepotastine to an acid salt form having a high optical purity which is resistant to racemization.

[5] = Hygroscopicity of bepotastine salts (Table 1); type: physicochemical
Excerpt: Further, when the crystalline bepotastine metal salt hydrate of formula (I) of the present invention is stored under an extremely high-moisture condition, its moisture content don't increases substantially, thus, it is non-hygroscopic. In contrast, an alkaline metal salt of bepotastine, e.g., lithium salt, sodium salt, potassium salt, magnesium salt or barium salt of bepotastine; a transition metal salt of bepotastine, e.g., zinc salt, aluminum salt, bismuth salt, or iron salt of bepotastine; an organic amine salt of bepotastine, e.g., ammonium salt, ethyl amine salt, dimethyl amine salt, triethylamine salt or N-methyl glucamine salt of bepotastine; and an amino acidic salt of the bepotastine, e.g., arginine salt, lysine salt, or histidine salt of bepotastine, are mostly obtained as non-crystalline forms, and, even when they are obtained as crystalline forms, they are hygroscopic.

Compound: O=C(O)CCCN1CCC(O[C@@H](c2ccc(Cl)cc2)c2ccccn2)CC1.O=S(=O)(O)c1ccccc1 [Benzenesulfonic acid salt, Bepotastine Benzenesulfonic Acid Salt]
- Water contents (%) Day 1 ([1]; 25° C., 75% R.H.): 0.6%
- Water contents (%) Day 3 ([1]; 25° C., 75% R.H.): 0.6%
- Water contents (%) Day 7 ([1]; 25° C., 75% R.H.): 0.7%
- Water contents (%) Day 15 ([1]; 25° C., 75% R.H.): 0.6%
- Water contents (%) initial ([1]; 25° C., 75% R.H.): 0.4%
- Water contents (%) Day 1 ([1]; 40° C., 75% R.H.): 0.7%
- Water contents (%) Day 3 ([1]; 40° C., 75% R.H.): 0.8%
- Water contents (%) Day 7 ([1]; 40° C., 75% R.H.): 0.8%
- Water contents (%) Day 15 ([1]; 40° C., 75% R.H.): 0.9%
- Water contents (%) initial ([1]; 40° C., 75% R.H.): 0.4%
- Water contents (%) Day 1 ([1]; 40° C., 90% R.H.): 2.4%
- Water contents (%) Day 3 ([1]; 40° C., 90% R.H.): 2.5%
- Water contents (%) Day 7 ([1]; 40° C., 90% R.H.): 2.4%
- Water contents (%) Day 15 ([1]; 40° C., 90% R.H.): 2.5%
- Water contents (%) initial ([1]; 40° C., 90% R.H.): 0.4%
- Saturation solubility (mg/ml) pH 1.2 buffer solution [2]: 45.0 mg/ml
- Saturation solubility (mg/ml) pH 6.8 buffer solution [2]: 28.1 mg/ml
- Change of optical purity during the storage [3]: decreases significantly
- Optical purity (%) After standing at 60° C. and 75% R.H. for 4 weeks in closed condition [3]: 97.3%
- Optical purity (%) After standing at 60° C. and 75% R.H. for 4 weeks in open condition [3]: 95.5%
- Optical purity (%) Before the test [3]: 99.9%
- Racemization under high moisture condition [4]: slow racemization

Compound: O.O.O=C([O-])CCCN1CCC(O[C@@H](c2ccc(Cl)cc2)c2ccccn2)CC1.O=C([O-])CCCN1CCC(O[C@@H](c2ccc(Cl)cc2)c2ccccn2)CC1.[Ca+2] [Calcium salt hydrate, Bepotastine Calcium Salt Dihydrate]
- Hygroscopicity (conclusion of moisture absorption test) [1]: essentially non-hygroscopic
- Water contents (%) Day 1 ([1]; 25° C., 75% R.H.): 4.3%
- Water contents (%) Day 3 ([1]; 25° C., 75% R.H.): 4.3%
- Water contents (%) Day 7 ([1]; 25° C., 75% R.H.): 4.4%
- Water contents (%) Day 15 ([1]; 25° C., 75% R.H.): 4.4%
- Water contents (%) initial ([1]; 25° C., 75% R.H.): 4.3%
- Water contents (%) Day 1 ([1]; 40° C., 75% R.H.): 4.4%
- Water contents (%) Day 3 ([1]; 40° C., 75% R.H.): 4.6%
- Water contents (%) Day 7 ([1]; 40° C., 75% R.H.): 4.5%
- Water contents (%) Day 15 ([1]; 40° C., 75% R.H.): 4.6%
- Water contents (%) initial ([1]; 40° C., 75% R.H.): 4.3%
- Increment of water content ([1]; 40° C., 90% R.H., 15 days): less than 0.7%
- Water contents (%) Day 1 ([1]; 40° C., 90% R.H.): 4.7%
- Water contents (%) Day 3 ([1]; 40° C., 90% R.H.): 4.9%
- Water contents (%) Day 7 ([1]; 40° C., 90% R.H.): 4.9%
- Water contents (%) Day 15 ([1]; 40° C., 90% R.H.): 5.0%
- Water contents (%) initial ([1]; 40° C., 90% R.H.): 4.3%
- Solubility compared with bepotastine benzenesulfonic acid salt ([2]; pH 1.2): similar
- Saturation solubility (mg/ml) pH 1.2 buffer solution [2]: 43.2 mg/ml
- Solubility relative to bepotastine benzenesulfonic acid salt ([2]; pH 6.8): at least 2 times
- Saturation solubility (mg/ml) pH 6.8 buffer solution [2]: 61.6 mg/ml
- Change of optical purity during the storage [3]: remained unchanged
- Optical purity (%) After standing at 60° C. and 75% R.H. for 4 weeks in closed condition [3]: 99.9%
- Optical purity (%) After standing at 60° C. and 75% R.H. for 4 weeks in open condition [3]: 99.9%
- Optical purity (%) Before the test [3]: 99.9%

Compound: [Mg] [Magnesium]
- Hygroscopicity [5]: Hygroscopic

Compound: NCCCC[C@H](N)C(=O)O [L-Lysine]
- Hygroscopicity [5]: Hygroscopic

Compound: O=C(O)CCCN1CCC(O[C@@H](c2ccc(Cl)cc2)c2ccccn2)CC1 [Sodium]
- Hygroscopicity [5]: Hygroscopic
- Hygroscopicity ([5]; listed as sodium salt of bepotastine): highly hygroscopic

Compound: O=C(O)CCCN1CCC(O[C@@H](c2ccc(Cl)cc2)c2ccccn2)CC1 [Potassium]
- Hygroscopicity ([5]; listed as potassium salt of bepotastine): highly hygroscopic

Compound: O=C(O)CCCN1CCC(OC(c2ccc(Cl)cc2)c2ccccn2)CC1.O=C(O)c1ccccc1 (stereo not shown) [bepotastine benzoic acid salt]
- Racemization under high moisture condition [4]: slow racemization

Compound: L-Arginine
- Hygroscopicity [5]: Hygroscopic

Compound: Zinc
- Hygroscopicity [5]: Hygroscopic
